Data on one molecule can be found in patent US8865762B2, “Method for the treatment of bone diseases comprising colforsin daropate” (Korea Research Institute of Bioscience and Biotechnology, priority 2009, dated 2014).

Data set [1] deals with murine monocytic cell line, RAW264.7. Description: Cytotoxicity test of monocytes (CCK-8 kit). The note with it: RAW264.7, 0, 10, 20 and 30 μM, after 1, 2 and 4 days, FIG. 1, monohydrochloride. It is filed as cell-based. The protocol:
The murine monocytic cell line, RAW264.7 (ATTC TIB-71) was cultured in a DMEM medium supplemented with 10% FBS, and the medium was replaced every other day. The cell culture reagents were purchased from Hyclone. When RAW264.7 cells reached 70% confluence, the collected cells were aliquotted into a 96-well plate at a density of 1×10^3/well, and cultured for 24 hours. Subsequently, the cells were treated with colforsin daropate at various concentrations (0, 10, 20 and 30 μM), and cultured for 96 hours. After 1, 2, and 4 days in culture, a cytotoxicity test was performed using the cells in each well and a CCK-8 kit (Dojindo, Japan).
(In general: Tetrazolium assays rely on reduction of a dye to a coloured formazan, in cell work by metabolically active cells.)

The test system of data set [2] is TRAP activity induced by RANKL in the monocytic cell line RAW264.7. Description: Osteoclast differentiation, TRAP staining and activity assay. The format is cell-based, murine. The protocol: At this time, α-MEM containing 100 ng/ml RANKL (R&D systems) and 10% FBS was used as a cell suspension medium. After 24 hours, the cells were treated with colforsin daropate at various concentrations (0, 0.2, 1, 2, 10, and 20 μM). After 3 days, TRAP staining was performed using a leukocyte acid phosphatase kit (Sigma). The stained cells were first fixed in 10% formalin for 10 minutes, and then dehydrated in 95% ethanol, and dried well at room temperature. Subsequently, 100 μl of citrate buffer (50 mM, pH 4.6) containing 10 mM sodium tartrate and 5 mM p-nitrophenylphosphate was added to each well, and reacted for 20 to 30 minutes. Thereafter, the enzyme reaction mixtures were transferred into new 96-well plates, and the reaction was terminated using 100 μl of 0.1 N NaOH. Absorbance was measured at 405 nm. TRAP activity was presented as a % of control, and a significance test was performed by t-test at the same time (purmorphamine treatment p<0.01; colforsin daropate treatment p<0.001). Purmorphamine was used as a control compound.

Data set [3] deals with ALP activity in murine osteoblastic cell, MC3T3-E1 subclone 4. Description: Alkaline phosphatase (ALP) activity of osteoblast, MC3T3-E1. It is filed as cell-based. Also on record: osteoblast differentiation-related ALP activity compared with the control compound purmorphamine: dose or concentration left out as unconfirmed. The protocol: (§1) In order to examine the effect of colforsin daropate on the activity of ALP, of which activity and expression are known to be increased at an early stage of osteoblast differentiation, the following experiment was performed. A murine osteoblastic cell, MC3T3-E1 subclone 4 (ATCC CRL-2593) was treated with colforsin daropate. After 8 days, cells were lysed using a lysis buffer (10 mM Tris-HCl, pH 7.5, 0.5 mM MgCl2, 0.1% Triton X-100) at room temperature for 30 minutes, and centrifuged at 12,000 rpm and 4° C. for 20 minutes. Next, […] in the obtained supernatant using a BCA kit (Bio-Rad), and its activity was measured using a LabAssay ALP kit (Wako, Japan). In this regard, the measured activity was presented as a % of the control, and a significance test was performed by t-test (colforsin daropate treatment, p<0.05; purmorphamine treatment as control, p<0.05). The same experiment was performed using multipotent C3H10T1/2 cells (cells can differentiate toward various lineages, including osteocytes).

Data set [4] has as its system ALP activity in multipotent C3H10T1/2 cells. Description: Alkaline phosphatase (ALP) activity, C3H10T1/2. The format is cell-based. The note with it: FIG. 3B. The protocol: as §1, with “A” for “In order to examine the effect of colforsin daropate on the activity of ALP, of which activity and expression are known to be increased at an early stage of osteoblast differentiation, the following experiment was performed. A”

Data set [5] relates to murine osteoblastic cell, MC3T3-E1 subclone 4. Put plainly: Cell proliferation of osteoblastic cells. The format is cell-based.
Data set [6] has as its system ovariectomy-induced bone loss. Put plainly: Bone density-improving effect in ovariectomy-induced osteoporosis model (micro-CT). It is filed as in vivo, DDY female mice. The note with it: ovariectomized mice, p.o. 5 mg/kg or 10 mg/kg once a day for 4 weeks, FIG. 4, monohydrochloride. The protocol: Thus, most studies are performed in animals. Ovariectomized mice are frequently used as a model for postmenopausal osteoporosis. Ovariectomized mice and early postmenopausal women share many similar characteristics, and thus ovariectomized mice have been commonly used in the studies of osteoporosis therapeutic agents. The present inventors performed ovariectomies on 5-week-old DDY female mice. The mice were anesthetized by intraperitoneal injection of 25 mg/kg of pentobarbital sodium (JW Pharmaceutical Corp). The abdomen of each mouse was shaved, and the surgical site was cleansed with antiseptics to perform ovariectomy. A 1.5 cm abdominal incision was made through the skin, muscle, and peritoneum to expose the ovary. The ovary was dissected out, and the peritoneum, muscle, and skin were sutured. As a control group, a sham ovariectomy was performed to the peritoneum identically, but the ovaries remained intact. The mouse models having ovariectomy-induced bone loss were orally administered (p.o.) with the colforsin compound at the concentrations of 5 mg/kg or 10 mg/kg once a day for 4 weeks. The effects were examined using a high resolution in-vivo micro-CT system (explore Locus scanner, GE Health Care, USA) to analyze the bone density.

“Also recorded” adds a separate entry of the source.

As for `C=C[C@@]1(C)CC(=O)[C@]2(O)[C@@]3(C)[C@@H](O)CCC(C)(C)[C@@H]3[C@H](OC(=O)CCN(C)C)[C@H](OC(C)=O)[C@@]2(C)O1.Cl` [colforsin daropate], the cytotoxicity entry in data set [1] was “no cytotoxicity; also recorded: without cytotoxicity”. Moreover, the “TRAP activity induced by RANKL” value in data set [2] (RAW264.7, 100 ng/ml RANKL, 0.2-20 μM, 3 days, % of control, FIG. 2) was “inhibited TRAP activity induced by RANKL in the monocytic cell line RAW264.7 in a concentration-dependent manner”. Moreover, the osteoclast differentiation entry in data set [2] (RAW264.7 with RANKL, FIGS. 1 and 2) is reported as “efficacy of inhibiting osteoclast differentiation”. Besides, the ALP activity result is “remarkably increased” in data set [3] (MC3T3-E1 subclone 4, after 8 days, % of control, FIG. 3A) and “also remarkably increased” in data set [4]. In addition, in data set [3] (versus purmorphamine), the “osteoblast differentiation-related ALP activity compared with the control compound purmorphamine” value was “more increased”. In data set [5], the cell proliferation entry is given as “did not affect cell proliferation”. Also, the “bone density / ovariectomy-induced bone loss” value in data set [6] is on record as “remarkably increased; also recorded: remarkably improved”.
